Assay results as given in article PMC5442318, “Hundreds of dual-stage antimalarial molecules discovered by a functional gametocyte screen” (Nature Communications, 2017).
Like-named read-outs stand apart in the source and are kept apart here.

Columns and labels:
[1] = test system: P. falciparum stages IV–V gametocytes; assay: Gametocytocidal ATP-depletion assay (gametocyte ATP bioluminescence); type: cell-based, Plasmodium falciparum; conditions: for inhibition at 2 µM: Plasmodium falciparum, mean
How it was run: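 Read-out is luciferase luminescence of parasite ATP (BacTiter-Glo), standing in for viability. Double-purified mature stage IV–V gametocytes, 12,500 per well, were exposed 48 h at 37 °C in low-O2 gas; screening concentration 2 μM.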

[2] = test system: P. falciparum female gametes; assay: Pf FGAA with compounds added 30 min after triggering gametocyte activation (gamete-targeting); type: cell-based, Plasmodium falciparum NF54; conditions: 0h incubation time
HepG2 cells = assay: HepG2 cytotoxicity assay; type: cell-based; conditions: for Selectivity ratio: HepG2 TOX50 vs Pf FGAA IC50
How it was run: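 Luminescent read-out (CellTiter-Glo) taken 10 min after reagent addition at RT; plates and reagent pre-equilibrated 30 min at RT.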

[3] = test system: P. falciparum stage V female gametocytes; assay: P. falciparum female gametocyte activation assay (Pf FGAA), 24 h or 48 h preincubation, Pfs25 expression readout; type: cell-based, Plasmodium falciparum NF54; design: key to Biological profile: 49 compounds that were only active with a 48 h exposure (designated as slow-acting); 29 compounds additionally showed activity with only 24 h exposure (designated as fast-acting); when the compounds were added 30 min after triggering gametocyte activation, 12 compounds prevented cell surface expression of Pfs25 (designated as gamete-targeting); conditions: for Pf FGAA classification: SLOW / FAST / GAMETE from activity at 48h, 24h, 0h incubation
How it was run: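 Female activation, triggered by xanthurenic acid and cooling, was scored by imaging Cy3-labelled anti-Pfs25 female gametes after 24 h at 26 °C. Beforehand, purified NF54 stage V gametocytes had been incubated with compound for either 24 h or 48 h (37 °C, 3% O2). Values are pIC50 from full-curve regression.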

[4] = test system: P. falciparum asexual blood stages; conditions: cited from earlier work; for IC50: read-out: Pf Asexual blood stages XC50
[5] = 24h incubation time, read-out: Pf FGAA IC50 (µM) 24h
[6] = P. falciparum female gametocytes, mean, read-out: Gametocytes mean Pf FGAA IC50
[7] = TCAMS asexual blood stage data, ref 1 (Gamo, F. J. et al., Nature 465, 305-310, 2010)
[8] = TCAMS data, ref 1 (Gamo, F. J. et al., Nature 465, 305-310, 2010)
[9] = mean, read-out: Gametocytes mean Pf FGAA IC50
[10] = TCAMS data, ref 1 (Gamo et al., 2010)
[11] = Plasmodium falciparum, 24h incubation time, read-out: Pf FGAA IC50 (µM) 24h
[12] = Plasmodium falciparum, mean, read-out: Gametocytes mean Pf FGAA IC50

SMILES	Gametocytes mean ATP inhibition at 2µM [1]	IC50 [2]	HepG2 cells mean TOX50 (HepG2 cells; HepG2 cells)	IC50 [3, 5]	IC50 [3, 6]	Pf FGAA classification [3]	IC50 [4, 7]	Pf Asexual stages XC50 [4, 8]	Gametocytes mean ATP inhibition at 2µM (%) [1]	HepG2 cells mean TOX50 (HepG2 cells)	IC50 [3, 9]	IC50 [4, 10]	inhibition at 2 µM [1]	IC50 ([2]; Plasmodium falciparum)	Selectivity ratio (HepG2 cells)	IC50 [3, 11]	IC50 [3, 12]	HepG2 cells TOX50 (HepG2 cells; HepG2 cells)	Biological profile ([3]; Pf FGAA with 48 h, 24 h or post-activation addition, active = IC50 below 2 μM)	IC50 ([3]; stage V gametocytes, 48 h exposure, read-out: PfFGAA IC50)
O=C(NCC1CCN(Cc2cccc(C(F)(F)F)c2)C1)c1cc(-c2cccc(F)c2)cs1.O=C(O)C(F)(F)F (stereo not drawn) [TCMDC-134484]	-3.56%	> 20 µM	18.87 µM	2.82 µM	2.26 µM	SLOW	1180 nM	1180 nM												
O=C(NCC1CCN(Cc2cccc(C(F)(F)F)c2)C1)c1cc(-c2cccc(Cl)c2)cs1.O=C(O)C(F)(F)F (stereo not drawn) [TCMDC-134485]	2.16%	> 20 µM	16.03 µM	12 µM	0.89 µM	SLOW	800 nM	800 nM												
CN(C)c1ccc(-c2csc(C(=O)NCC3CCN(Cc4cccc(C(F)(F)F)c4)C3)c2)cc1.O=C(O)C(F)(F)F (stereo not drawn) [TCMDC-134486]	-14.11%	> 20 µM	8.18 µM	2.56 µM	1.56 µM	SLOW	840 nM	840 nM												
N#Cc1ccc(-c2ccc(C(=O)NCC3CCN(CCN4CCC(c5ccc6c(c5OCC(N)=O)CCCC6)CC4)CC3)cc2)cc1 [TCMDC-134563]	-20.83%	> 20 µM	6.17 µM	5.88 µM	1.26 µM	SLOW	440 nM	440 nM												
O=C(O)C(F)(F)F.O=c1[nH]ccc2nc(N[C@@H]3CCNC3)nc(Nc3cc(Cl)cc(Cl)c3)c12 [TCMDC-135052]	-43.72%	15.1 µM	4.79 µM	2.57 µM	0.74 µM	SLOW	740 nM	740 nM												
CC(C)(C)OC(=O)NCc1ccc(Nc2nnc(-c3cccc(C(=O)NCc4cc(C(F)(F)F)cc(C(F)(F)F)c4)c3)o2)cc1 [TCMDC-135229]	-6.34%	> 20 µM	21.43 µM	2.41 µM	3.14 µM	SLOW	870 nM	870 nM												
CN1CCN(Cc2ccc(-c3cc4c(Nc5ccc(OCc6cccc(F)c6)c(Cl)c5)ncnc4s3)[nH]2)CC1 [TCMDC-135458]	-48.07%	> 20 µM	10.98 µM		2.41 µM	SLOW	770 nM	770 nM												
CC(C)N1CCN(C(CN2CCN(CCCOc3ccccc3-c3ccccc3)CC2)c2ccc(F)cc2)CC1.Cl (stereo not drawn) [TCMDC-135499]	-15.92%	12.3 µM	4.32 µM	5.74 µM	1.41 µM	SLOW	790 nM	790 nM												
CCn1c(-c2nonc2N)nc2c(-c3cccc(NC(=O)Nc4ccc(Cl)cc4)c3)ncc(OCCCN)c21.O=C(O)C(F)(F)F [TCMDC-136152]		> 20 µM		6.65 µM		SLOW		830 nM	-4.09%	10.96 µM	1.7 µM	830 nM								
CCn1c(-c2nonc2N)nc2c(-c3cccc(NC(=O)Nc4ccc5c(c4)CCC5)c3)ncc(OCCCN)c21.O=C(O)C(F)(F)F [TCMDC-136191]		> 20 µM		6.46 µM		SLOW		780 nM	-19.55%	7.42 µM	1.03 µM	780 nM								
CN(C)CCCNCc1cn(S(=O)(=O)c2ccccc2Cl)c2ccccc12 [TCMDC-136302]						FAST		350 nM		11.78 µM		1070 nM	3.27%	> 20 µM	6.39	0.51 µM	1.84 µM			
Cc1noc(C)c1-c1ccc2c(Nc3nccc4ccccc34)c(C(N)=O)cnc2c1 [TCMDC-136456]		> 20 µM		3.33 µM		SLOW		890 nM	0.55%	3.85 µM	1.54 µM	890 nM								
Cc1cc(C(F)(F)F)cc(-n2ncc(-c3ccc(C(=O)NCc4ccccc4N)cc3)c2N)n1.O=C(O)C(F)(F)F [TCMDC-136658]		> 20 µM		12.5 µM		SLOW		450 nM	-1.42%	26.82 µM	1.46 µM	450 nM								
CN1CCN(Cc2ccc(OCc3cccc(COc4ccc(CN5CCN(C)CC5)cc4I)c3)c(I)c2)CC1.Cl [TCMDC-137239]		15.1 µM		6.48 µM		SLOW		1010 nM	-13.43%	5.01 µM	1.85 µM	1010 nM								
Clc1nc(Cl)c2c(ccn2Cc2ccccc2)n1 [TCMDC-137801]		> 20 µM		2.29 µM		FAST		790 nM	-14.95%	>100 µM	1.46 µM	790 nM						>100 µM		
N#Cc1ccc(Cn2ccc3c4c(N)nc(N)nc4ccc32)cc1 [TCMDC-137820]		8.15 µM		1.91 µM		FAST		3 nM	-6.11%	<0.0017 µM		3 nM						<0.0017 µM	fast-acting	1.06 µM
Cc1ccc(S(=O)(=O)N(CCCNCc2cccc(O)c2)c2ccccc2)cc1 [TCMDC-138022]						SLOW		770 nM		44.67 µM		770 nM	32%	> 20 µM	39.21	> 20 µM	1.14 µM			
COc1cc2nc(Nc3ccc4c(ccn4Cc4ccccc4)c3)nc(Nc3ccc4c(ccn4Cc4ccccc4)c3)c2cc1OC [TCMDC-138237]		> 20 µM		5.44 µM		SLOW		650 nM	12.64%	14.13 µM	1.58 µM	650 nM								
Cl.Fc1cc(Cl)ccc1Nc1ccnc2cc(-c3ccc(CN4CCNCC4)o3)ccc12 [TCMDC-138394]		> 20 µM		10 µM		SLOW		280 nM	1.31%	12.05 µM	1.91 µM	280 nM								
